In patent publication US20210322443A1 (MAPREG, priority 2015, published 2021):

Assays:
[1] = molecular target: Noradrenergic Transporter (Homo sapiens, UniProt P23975); test: CNS receptor binding assay; conditions: [3H] nisoxetine, Human recombinant (CHO cells), read-out: % Inhibition of control specific binding
[2] = molecular target: purified tubulin and MAP2 (Homo sapiens, UniProt P11137); test: Increase in optical density at 345 nm of purified tubulin and MAP2 (microtubule polymerization); format: biochemical; conditions: 37° C., GTP
Procedure: Activity is measured by the increase in optical density at 345 nm of a mixture of purified tubulin and MAP2, incubated at 37° C. in the presence of GTP.

Chain of purified tubulin and MAP2 (P11137 whole entry): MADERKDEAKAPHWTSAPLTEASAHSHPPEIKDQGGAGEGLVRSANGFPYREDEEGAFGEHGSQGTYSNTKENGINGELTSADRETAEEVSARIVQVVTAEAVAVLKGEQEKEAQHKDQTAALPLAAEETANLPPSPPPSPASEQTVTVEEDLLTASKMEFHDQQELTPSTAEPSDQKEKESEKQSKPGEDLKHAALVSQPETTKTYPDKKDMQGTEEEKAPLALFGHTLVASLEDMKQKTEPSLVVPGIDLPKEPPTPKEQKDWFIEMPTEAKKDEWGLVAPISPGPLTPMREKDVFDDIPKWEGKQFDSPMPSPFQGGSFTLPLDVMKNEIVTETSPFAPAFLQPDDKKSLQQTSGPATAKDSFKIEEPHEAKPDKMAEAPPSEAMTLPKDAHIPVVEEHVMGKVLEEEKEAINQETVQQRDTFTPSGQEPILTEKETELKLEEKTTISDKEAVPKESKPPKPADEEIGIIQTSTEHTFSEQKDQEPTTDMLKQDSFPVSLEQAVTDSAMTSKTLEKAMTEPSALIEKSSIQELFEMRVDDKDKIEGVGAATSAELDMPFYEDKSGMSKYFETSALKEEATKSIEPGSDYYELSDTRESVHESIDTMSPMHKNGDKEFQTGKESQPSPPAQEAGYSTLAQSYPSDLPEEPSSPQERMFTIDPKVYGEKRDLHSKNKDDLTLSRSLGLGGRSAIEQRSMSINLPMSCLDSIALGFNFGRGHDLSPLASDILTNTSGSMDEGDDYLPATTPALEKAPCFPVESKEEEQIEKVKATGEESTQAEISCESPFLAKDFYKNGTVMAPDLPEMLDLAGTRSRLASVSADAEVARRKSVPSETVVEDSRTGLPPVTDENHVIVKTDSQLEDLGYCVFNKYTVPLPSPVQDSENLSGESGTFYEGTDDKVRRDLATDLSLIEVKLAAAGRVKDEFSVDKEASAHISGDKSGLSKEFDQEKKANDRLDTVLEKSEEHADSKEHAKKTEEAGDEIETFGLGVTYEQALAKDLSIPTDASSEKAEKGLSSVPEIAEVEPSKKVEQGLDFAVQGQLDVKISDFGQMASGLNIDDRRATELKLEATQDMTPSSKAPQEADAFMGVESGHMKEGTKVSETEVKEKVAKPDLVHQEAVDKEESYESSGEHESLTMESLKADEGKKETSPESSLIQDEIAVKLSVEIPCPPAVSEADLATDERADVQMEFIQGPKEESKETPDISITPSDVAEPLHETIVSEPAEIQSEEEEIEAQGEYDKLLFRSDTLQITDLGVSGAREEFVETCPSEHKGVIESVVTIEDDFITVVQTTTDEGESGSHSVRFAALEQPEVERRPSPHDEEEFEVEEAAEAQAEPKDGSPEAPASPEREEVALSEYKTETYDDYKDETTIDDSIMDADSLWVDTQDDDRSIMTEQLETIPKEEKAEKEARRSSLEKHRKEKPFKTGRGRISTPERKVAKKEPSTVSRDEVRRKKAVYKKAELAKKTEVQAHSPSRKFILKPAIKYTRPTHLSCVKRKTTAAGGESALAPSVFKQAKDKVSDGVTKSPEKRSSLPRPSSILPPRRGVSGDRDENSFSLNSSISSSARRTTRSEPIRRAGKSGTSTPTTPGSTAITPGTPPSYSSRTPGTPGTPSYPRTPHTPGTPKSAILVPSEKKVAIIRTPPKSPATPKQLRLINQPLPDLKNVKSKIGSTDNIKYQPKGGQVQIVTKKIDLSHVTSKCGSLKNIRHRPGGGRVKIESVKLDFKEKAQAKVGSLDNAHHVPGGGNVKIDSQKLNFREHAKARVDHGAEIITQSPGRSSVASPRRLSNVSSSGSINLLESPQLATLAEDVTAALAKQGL
Chain of Noradrenergic Transporter (P23975 whole entry): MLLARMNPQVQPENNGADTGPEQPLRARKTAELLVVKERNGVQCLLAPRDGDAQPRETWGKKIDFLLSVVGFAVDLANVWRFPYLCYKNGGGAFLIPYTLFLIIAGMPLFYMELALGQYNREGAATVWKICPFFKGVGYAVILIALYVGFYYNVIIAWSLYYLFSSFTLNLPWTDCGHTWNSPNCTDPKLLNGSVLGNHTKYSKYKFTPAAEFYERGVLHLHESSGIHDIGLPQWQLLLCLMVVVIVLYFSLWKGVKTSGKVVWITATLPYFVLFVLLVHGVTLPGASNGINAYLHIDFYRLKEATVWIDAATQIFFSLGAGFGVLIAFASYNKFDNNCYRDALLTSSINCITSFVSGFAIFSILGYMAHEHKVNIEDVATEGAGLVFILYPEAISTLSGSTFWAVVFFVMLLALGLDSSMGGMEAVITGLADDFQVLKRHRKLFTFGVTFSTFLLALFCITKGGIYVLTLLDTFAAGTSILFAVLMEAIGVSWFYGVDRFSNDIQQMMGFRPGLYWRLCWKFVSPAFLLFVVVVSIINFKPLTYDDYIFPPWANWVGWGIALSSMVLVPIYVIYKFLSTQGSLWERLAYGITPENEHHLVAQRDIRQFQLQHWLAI

CO[C@H]1CC[C@@]2(C)C(=CC[C@H]3[C@@H]4CC[C@H](C(C)=O)[C@@]4(C)CC[C@@H]32)C1 [MAP4343, 3β-methoxy-pregna-5-ene-20-one]
inhibition at 10 µM [1]: 3%
Activity (percent of PREG) [2]: 100% of PREG
